Laboratory results: US20260137665A1, “COMBINATION THERAPIES FOR THE TREATMENT OF CANCER” (AADI Bioscience, Inc., priority 2022, published 2026)

What was measured:
[1] = tested on: NCI-H2122 human non-small cell lung cancer xenografts; assay: Anti-tumor activity in mice bearing NCI-H2122 tumor xenografts; format: in vivo; details: for Response Rate % (Tumor Regression >−30%): NCI-H2122-xenografted mice, doses per Table D
Method: Next, a similar set of experiments was performed in mice bearing human NCI-H2122 tumor xenografts. NCI-H2122 is a human NSCLC […] cancer cell line that harbors KRAS^G12C and STK11 null (loss of function) mutations.

[2] = tested on: NCI-H2030 human non-small cell lung cancer xenografts; assay: Anti-tumor activity in mice bearing NCI-H2030 tumor xenografts; format: in vivo; details: for Response Rate % (Tumor Regression >−30%): NCI-H2030-xenografted mice, doses per Table A1; for tumor growth inhibition (TGI): NCI-H2030 xenografts, female athymic mice, n=3/group, doses and routes per Table A1
Description: (NCI-H2030 mutation profile: KRAS^G12C, STK11^E317*, TP53^G262V.) The KRAS G12C mutation, which is common in NSCLC, leads to constitutive activation of the tumor growth-promoting RAS/MAPK signaling pathway. STK11 is a negative regulator of mTOR signaling. The mTOR pathway is often activated in patients with KRAS mutation and contributes to adaptive resistance to KRAS inhibitors.
Female athymic mice were implanted with human NCI-H2030 NSCLC cells in both flanks.

[3] = tested on: UMUC3 human bladder cancer xenografts; assay: Anti-tumor activity in mice bearing UMUC3 tumor xenografts
Description: UMUC3 is a human transitional cell carcinoma (bladder cancer) cell line harboring KRAS^G12C and PTEN null mutations. PTEN is a negative regulator or mTOR activity (UMUC3 mutation profile: KRAS^G12C, PTEN^null, TP53^F113C, ATM^Q2800fs, CDKN2A^null, UGT2B17^null.)
Briefly, female athymic mice were implanted with NCI-H2122 cells in their right flanks. When tumor volume reached approximately 100-150 mm^3, animals were randomly divided into nine groups (n=6/group), and administered with saline (control), a single agent drug, or a drug combination shown in Table F below according to the administration routes, dosages and administration frequencies shown in Table F below.

Row | Structure (SMILES) | Response Rate % (Tumor Regression >−30%) [1] | Response Rate % (Tumor Regression >−30%) [2] | tumor growth inhibition (TGI) [2] | tumor growth inhibition (TGI) ([1]; NCI-H2122 xenografts, female athymic mice, n=5/group, doses and routes per Table D) | mice tumor-free during the study ([3]; UMUC3-xenografted mice, n=6/group) | mice surviving to the end of the study (Day 42) ([3]; UMUC3-xenografted mice, n=6/group, doses per Table F) | Response Rate % (Tumor Regression >−30%) ([3]; UMUC3-xenografted mice, doses per Table F) | tumor growth inhibition (TGI) ([3]; UMUC3 xenografts, female athymic mice, n=6/group, doses and routes per Table F)
1 | CO[C@H]1C[C@@H]2CC[C@@H](C)[C@@](O)(O2)C(=O)C(=O)N2CCCC[C@H]2C(=O)O[C@H]([C@H](C)C[C@@H]2CC[C@@H](OCCO)[C@H](OC)C2)CC(=O)[C@H](C)/C=C(\C)[C@@H](O)[C@@H](OC)C(=O)[C@H](C)C[C@H](C)/C=C/C=C/C=C/1C [everolimus] | 10% | 0% | 22% |  |  |  |  | 
2 | C=CC(=O)N1CCN(c2nc(=O)n(-c3c(C)ccnc3C(C)C)c3nc(-c4c(O)cccc4F)c(F)cc23)[C@@H](C)C1 (atropisomer, axis not shown; (M)) [sotorasib, 6-Fluoro-7-(2-fluoro-6-hydroxyphenyl)-(1M)-1-[4-methyl-2-(propan-2-yl)pyridin-3-yl]-4-[(2S)-2-methyl-4-(prop-2-enoyl)piperazin-1-yl]pyrido[2,3-d]pyrimidin-2(1H)-one] | 0% | 0% | 20% | 79% | 0/6 | 0/6 | 0% | 100%
